Data set [1] is described as follows: Half life in Sprague-Dawley rat at 100 uM, iv measured up to 24 hrs by IVIS spectrum imaging analysis. It counts as ADME, organism-based. As to conditions: in vivo.
The nature of data set [2]: Drug uptake in tumor of mouse 4T1 cells allografted in BALB/c mouse assessed as XPNPEP2 expression by […] based analysis. It counts as ADME, Neoplasm.
A short description of data set [3]: Toxicity in BALB/c mouse allografted with mouse 4T1 cells assessed as histopathological change in liver at 100 uM, iv measured after 12 hrs followed by 2.5 W/cm2 NIR laser irradiation for 3 mins by hematoxylin and eosin staining based analysis. Format: organism-based. As to conditions: in vivo.
Data set [4] concerns 4T1. Description: Upregulation of XPNPEP expression in mouse 4T1 cells by Western blot analysis. It counts as functional, cell-based. A general note: In western blotting, separated proteins are transferred to a membrane and probed.
In data set [5] the test system is 4T1. Description: Cytotoxicity against mouse 4T1 cells assessed as cell viability at higher concentration incubated for 24 hrs by CCK-8 assay relative to control. Format: functional. (Tetrazolium dyes change colour on reduction, which living cells bring about.)
The nature of data set [6]: Biodistribution in BALB/c mouse assessed as increase in fluorescence signal at 30 uM, iv measured after 30 mins by NIR fluorescence imaging analysis. It counts as ADME, organism-based. As to conditions: in vivo, 0.5 h.
A short description of data set [7]: Toxicity in BALB/c mouse allografted with mouse 4T1 cells assessed as histopathological change in spleen at 100 uM, iv measured after 12 hrs followed by 2.5 W/cm2 NIR laser irradiation for 3 mins by hematoxylin and eosin staining based analysis. It counts as organism-based. To be noted: in vivo.
Data set [8] in a line: Toxicity in BALB/c mouse allografted with mouse 4T1 cells assessed as change in body weight at 100 uM, iv treated for 12 hrs followed by 2.5 W/cm2 NIR laser irradiation for 3 mins and measured every 2 days. Format: organism-based. To be noted: in vivo, 48 h, time 2 day.
Data set [9] in a line: Toxicity in BALB/c mouse allografted with mouse 4T1 cells assessed as histopathological change in kidney at 100 uM, iv measured after 12 hrs followed by 2.5 W/cm2 NIR laser irradiation for 3 mins by hematoxylin and eosin staining based analysis. Format: organism-based. To be noted: in vivo.
Data set [10] can be described thus: Drug accumulation in BALB/c mouse kidney assessed as increase in fluorescence intensity at 30 uM, iv measured after 2 hrs by NIR fluorescence imaging analysis. Format: ADME, organism-based. As to conditions: in vivo.
Data set [11] deals with 4T1. The experiment in a line: Antitumor activity against mouse 4T1 cells allografted in BALB/c mouse assessed as inhibition of tumor growth at 100 uM, iv treated for 12 hrs followed by 2.5 W/cm2 NIR laser irradiation for 3 mins and measured every 2 days. It counts as functional, organism-based. As to conditions: time 2.0 day.
Data set [12] in a line: Cmax in Sprague-Dawley rat at 100 uM, iv measured up to 24 hrs by IVIS spectrum imaging analysis. As to conditions: in vivo. Format: ADME, organism-based. The arrangement: time < 24 hrs, dose 100 µM, route iv.
Data set [13] in a line: Toxicity in BALB/c mouse allografted with mouse 4T1 cells assessed as histopathological change in heart at 100 uM, iv measured after 12 hrs followed by 2.5 W/cm2 NIR laser irradiation for 3 mins by hematoxylin and eosin staining based analysis. To be noted: in vivo. It counts as organism-based.
Data set [14] can be described thus: Drug uptake in tumor of mouse 4T1 cells allografted in BALB/c mouse assessed as increase in fluorescence signal at 30 uM, iv measured after 12 to 48 hrs by IVIS spectrum in vivo imaging analysis. It counts as ADME, organism-based, Neoplasm. To be noted: time 12-48 hrs.
Data set [15] has as its system 4T1. The experiment in a line: Induction of apoptosis in mouse 4T1 cells allografted in BALB/c mouse assessed as increase in total apoptotic cells at 100 uM, iv measured after 12 hrs followed by 2.5 W/cm2 NIR laser irradiation for 3 mins by hematoxylin and eosin staining based analysis. Format: functional, organism-based.
A short description of data set [16]: Drug uptake in lymph node of mouse 4T1 cells allografted in BALB/c mouse assessed as increase in ratio of fluorescence signal in tumor lymph node to normal lymph node at 30 uM, iv measured up to 48 hrs by NIR fluorescence imaging analysis. To be noted: in vivo. Format: ADME, organism-based.
Data set [17] has as its system 4T1. Description: Induction of apoptosis in mouse 4T1 cells allografted in BALB/c mouse assessed as increase in total apoptotic cells at 100 uM, iv measured after 12 hrs followed by 2.5 W/cm2 NIR laser irradiation for 3 mins by TUNEL staining based analysis. It counts as functional, organism-based.
Data set [18] is described as follows: Drug uptake in lymph node of mouse 4T1 cells allografted in BALB/c mouse assessed as increase in fluorescence signal at 30 uM, iv measured after 24 to 48 hrs by NIR fluorescence imaging analysis. Format: ADME, organism-based. As to conditions: in vivo, time 24-48 hrs.
A short description of data set [19]: Drug accumulation in BALB/c mouse liver assessed as increase in fluorescence intensity at 30 uM, iv measured after 30 mins by NIR fluorescence imaging analysis. It counts as ADME, organism-based. As to conditions: in vivo, 0.5 h.
For data set [20], the system named is 4T1. Description: Induction of apoptosis in mouse 4T1 cells allografted in BALB/c mouse assessed as increase in total necrotic cells at 100 uM, iv measured after 12 hrs followed by 2.5 W/cm2 NIR laser irradiation for 3 mins by hematoxylin and eosin staining based analysis. It counts as functional, organism-based.
Data set [21] in a line: Toxicity in BALB/c mouse allografted with mouse 4T1 cells assessed as histopathological change in lung at 100 uM, iv measured after 12 hrs followed by 2.5 W/cm2 NIR laser irradiation for 3 mins by hematoxylin and eosin staining based analysis. Format: organism-based. As to conditions: in vivo.
A short description of data set [22]: Drug uptake in mouse 4T1 cells assessed as increase in fluorescence signal measured after 1 hr by flow cytometry analysis. Format: ADME, cell-based. To be noted: 4t1, 1 h. (In general: Flow cytometry measures light scatter and fluorescence of single cells or particles in a stream.)
The nature of data set [23]: Drug uptake in tumor of mouse 4T1 cells allografted in BALB/c mouse assessed as increase in fluorescence signal at 30 uM, iv measured after 12 hrs by NIR fluorescence imaging analysis. Format: ADME, organism-based, Neoplasm. As to conditions: in vivo.
Data set [24] is described as follows: Drug uptake in tumor of mouse 4T1 cells allografted in BALB/c mouse assessed as increase in ratio of fluorescence signal in tumor to normal tissue at 30 uM, iv measured after 12 to 48 hrs by NIR fluorescence imaging analysis. Format: ADME, organism-based, Neoplasm. As to conditions: in vivo, time 12-48 hrs.
In data set [25] the test system is 4T1. Description: Antitumor activity in mouse 4T1 cells allografted in BALB/c mouse assessed as increase in temperature of tumor site at 100 uM, iv measured after 12 hrs followed by 2.5 W/cm2 NIR laser irradiation for 3 mins by infrared thermal imaging analysis. Format: functional.
A short description of data set [26]: MRT 0 to t in Sprague-Dawley rat at 100 uM, iv measured up to 24 hrs by IVIS spectrum imaging analysis. To be noted: in vivo. Format: ADME, organism-based.
A short description of data set [27]: AUC 0 to t in Sprague-Dawley rat at 100 uM, iv measured up to 24 hrs by IVIS spectrum imaging analysis. On the set-up: time < 24 hrs, dose 100 µM, route iv. It counts as ADME, organism-based. As to conditions: in vivo.

Activity calls are given as the source filed them. The calls are words filed in the database; no cut-off is given here. Bridge positions count the residues as written; N and C are the ends. Square brackets hold non-standard residues; d marks the D form. Peptide text beside a SMILES is read from it. I, II: the chains in the order shown. * marks the point of attachment. X1 = CC1(C)C(/C=C/C=C/C=C/C=C2/N(CCCCCC(=O)*)c3ccc4ccccc4c3C2(C)C)=[N+](CCCCS(=O)(=O)[O-])c2ccc3ccccc3c21; PEG4 = NCCOCCOCCOCCOCCC(=O)O

As usually defined, the half-life is the time in which the quantity being followed falls by half. By cell viability is commonly meant a read-out of living cells in per cent, often relative to untreated cells. As a reminder, the Cmax is the maximum level reached in the sampled fluid or tissue. What is called MRT last is a mean duration of stay, worked out from the concentration-time curve. Usually AUC(0-t) stands for exposure summed from dosing to a finite time, without extrapolation to infinity. Turning to `CC(C)[C@@H]1NC(=O)[C@H](CC(N)=O)NC(=O)CNC(=O)[C@@H](NC(=O)CNC(=O)CCOCCOCCOCCOCCNC(=O)CC[C@H](NC(=O)CCCCCN2/C(=C/C=C/C=C/C=C/C3=[N+](CCCCS(=O)(=O)[O-])c4ccc5ccccc5c4C3(C)C)C(C)(C)c3c2ccc2ccccc32)C(=O)NCCOCCOCCOCCOCCC(=O)NCC(=O)N[C@H]2CSSC[C@@H](C(=O)O)NC(=O)CNC(=O)[C@H](CCC(N)=O)NC(=O)[C@H](CCCNC(=N)N)NC(=O)[C@H](C(C)C)NC(=O)[C@H](C(C)C)NC(=O)[C@H](CC(N)=O)NC(=O)CNC2=O)CSSC[C@@H](C(=O)O)NC(=O)CNC(=O)[C@H](CCC(N)=O)NC(=O)[C@H](CCCNC(=N)N)NC(=O)[C@H](C(C)C)NC1=O` (I: X1-E[PEG4]GCGNVVRQGC-OH / II: [PEG4]GCGNVVRQGC-OH; amide I:1-II:N; disulfide I:4-I:12, II:3-II:11), in data set [1], the half-life at 100 µM is 5.9 h. The Drug uptake result in data set [2], in data set [6], in [10], in [14], in data set [16] and in [18] was “Active” in each case. Moreover, the Drug uptake result in data set [19], in data set [22] and in data set [23] was “Active” each time. The Activity entry in [3], in [7], in data set [8], in [9], in [13] and in data set [21] was “Non-Toxic” in each case. The result in [4], in data set [11], in data set [15], in [17] and in [20] was Active. For the same compound, in [5], the cell viability is recorded as more than 90%. This compound also gave a Cmax at 100 µM in data set [12] of 212 nM. Further, the T/C in [24] was found to be 40. The T in data set [25] came to 51 °C. For the same compound, in data set [26], the MRT last at 24 h, 100 µM is 5.77 h. Moreover, in [27], the area under the curve AUC(0-t) at 24 h, 100 µM worked out at 1.29 µM·h.
In the case of `CC(C)[C@@H]1NC(=O)[C@H](CC(N)=O)NC(=O)CNC(=O)[C@@H](NC(=O)CNC(=O)CCOCCOCCOCCOCCNC(=O)CCCCCN2/C(=C/C=C/C=C/C=C/C3=[N+](CCCCS(=O)(=O)[O-])c4ccc5ccccc5c4C3(C)C)C(C)(C)c3c2ccc2ccccc32)CSSC[C@@H](C(=O)O)NC(=O)CNC(=O)[C@H](CCC(N)=O)NC(=O)[C@H](CCCNC(=N)N)NC(=O)[C@H](C(C)C)NC1=O` ({X1-PEG4}-GCGNVVRQGC-OH; disulfide 2-10), in data set [11], the outcome was Active. For the same compound, the Drug uptake result in data set [14] is given as “Active”. For the same compound, the T in data set [25] was 47 °C.
On to `CC1(C)C(/C=C/C=C/C=C/C=C2\N(CCCCS(=O)(=O)[O-])c3ccc4ccccc4c3C2(C)C)=[N+](CCCCS(=O)(=O)[O-])c2ccc3ccccc3c21.[Na+]` [INDOCYANINE GREEN], for which, in data set [1], the half-life at 100 µM was 0.4 h. In data set [12], this compound registered a Cmax at 100 µM of 57.6 nM. For the same compound, the T in data set [25] is 40 °C. In addition, the MRT last at 24 h, 100 µM in data set [26] was 0.251 h. In data set [27], this compound yielded an AUC(0-t) at 24 h, 100 µM of 0.0175 µM·h.
